What was measured:
barley (Hordeum vulare) = assay: Postemergence herbicidal activity in cereal crops; assay type: in vivo; settings: Hordeum, post-emergence, 480 h, crop, post-emergent, after 20-22 days, read-out: % Control HORVS; for pest or weed control at 70 g/ha: 70 g ai/ha
Experimental: (§1) When required to ensure good germination and healthy plants, a fungicide treatment and/or other chemical or physical treatment was applied. The plants were grown for 7-36 days in a greenhouse with an approximate 14 hour photoperiod which was maintained at about 18° C. during the day and 17° C. during the night. Nutrients and water were added on a regular basis and supplemental lighting was provided with overhead metal halide 1000-Watt lamps as necessary. The plants were employed for testing when they reached the second or third true leaf stage. […] The concentrated stock solutions obtained were diluted with 16 mL of an aqueous mixture containing acetone, water, isopropyl alcohol, DMSO, Agri-dex crop oil concentrate, and Triton® X-77 surfactant in a 64.7:26.0:6.7:2.0:0.7:0.01 v/v ratio to obtain spray solutions containing the highest application rates. […] Compound requirements are based upon a 12 mL application volume at a rate of 187 L/ha. Formulated compounds were applied to the plant material with an overhead Mandel track sprayer equipped with a […] nozzles calibrated to deliver 187 L/ha over an application area of 0.503 square meters at a spray height of 18 inches (43 cm) above average plant canopy height. Control plants were sprayed in the same manner with the blank. The treated plants and control plants were placed in a greenhouse as described above and watered by sub-irrigation to prevent wash-off of the test compounds.

[1] = tested on: wheat (Triticum aestivum); assay: Postemergence herbicidal activity in cereal crops; assay type: in vivo; settings: Triticum aestivum, post-emergence, 480 h, crop, post-emergent, after 20-22 days, read-out: % Control TRZAS; for plant injury at 70 g/ha: 70 g ai/ha
Experimental: as §1

Lamium purpureum = assay: Postemergence herbicidal activity in cereal crops; assay type: in vivo; settings: Lamium purpureum, post-emergence, 480 h, post-emergent, after 20-22 days, read-out: % Control LAMPU; for pest or weed control at 70 g/ha: 70 g ai/ha
Experimental: as §1

Veronica persica = assay: Postemergence herbicidal activity in cereal crops; assay type: in vivo; settings: Veronica persica, post-emergence, 480 h, post-emergent, after 20-22 days, read-out: % Control VERPE; for pest or weed control at 70 g/ha: 70 g ai/ha
Experimental: as §1

Papaver rhoeas = assay: Postemergence herbicidal activity in cereal crops; assay type: in vivo; settings: Papaver rhoeas, post-emergence, 480 h, post-emergent, after 20-22 days, read-out: % Control PAPRH; for pest or weed control at 70 g/ha: 70 g ai/ha
Experimental: as §1

Galium aparine = assay: Postemergence herbicidal activity in cereal crops; assay type: in vivo; settings: Galium aparine, post-emergence, 480 h, post-emergent, after 20-22 days, read-out: % Control GALAP; for pest or weed control at 70 g/ha: 70 g ai/ha
Experimental: as §1

[2] = tested on: velvetleaf (Abutilon theophrasti); assay: Preemergence herbicidal activity; assay type: in vivo; settings: Abutilon theophrasti, pre-emergence, 480 h; pre-emergent, 140 g ai/ha, after 20-22 days; read-out: % Control ABUTH
How it was run: (§2)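 Seeds sown in 70:30 loam (pH about 8.1, about 1.5% organic matter) and sand mix, then sprayed preemergence at 187 L/ha with a track sprayer; controls received solvent blank. Pots kept in greenhouse, about 15 h photoperiod, about 23-29° C. day and 22-28° C. night, top-irrigated.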

[3] = tested on: lambsquarter (Chenopodium album); assay: Preemergence herbicidal activity; assay type: in vivo; settings: Chenopodium album, pre-emergence, 480 h; pre-emergent, 140 g ai/ha, after 20-22 days; read-out: % Control CHEAL
How it was run: as §2

[4] = tested on: redroot pigweed (Amaranthus retroflexus); assay: Preemergence herbicidal activity; assay type: in vivo; settings: Amaranthus retroflexus, pre-emergence, 480 h; pre-emergent, 140 g ai/ha, after 20-22 days; read-out: % Control AMARE
How it was run: as §2

[5] = tested on: velvetleaf (Abutilon theophrasti); assay: Postemergence herbicidal activity; assay type: in vivo; settings: Abutilon theophrasti, post-emergence, 336 h, post-emergent, 140 g ai/ha, after 14 days; read-out: % Control ABUTH
How it was run: (§3)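 Plants grown 7-21 days in greenhouse (about 15 h photoperiod, 23-29° C day, 22-28° C night) to first or second true leaf stage. Compounds in acetone/water/isopropanol/DMSO carrier with crop oil concentrate and Triton X-155 sprayed overhead at 187 L/ha; controls received solvent blank. Plants sub-irrigated afterwards; dose responses analysed by probit analysis.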

[6] = tested on: lambsquarter (Chenopodium album); assay: Postemergence herbicidal activity; assay type: in vivo; settings: Chenopodium album, post-emergence, 336 h, post-emergent, 140 g ai/ha, after 14 days; read-out: % Control CHEAL
How it was run: as §3

[7] = tested on: redroot pigweed (Amaranthus retroflexus); assay: Postemergence herbicidal activity; assay type: in vivo; settings: Amaranthus retroflexus, post-emergence, 336 h, post-emergent, 140 g ai/ha, after 14 days; read-out: % Control AMARE
How it was run: as §3

Echinochloa crus-galli = assay: Herbicidal activity in transplanted paddy rice; assay type: in vivo; settings: Echinochloa crus-galli, 504 h; paddy water application, 70 g ai/ha, after 3 weeks; read-out: % Control ECHCG
Experimental: (§4) Weed seeds or nutlets of the desired test plant species were planted in puddled soil (mud) prepared by mixing a non-sterilized mineral soil (28 percent silt, 18 percent clay, and 54 percent sand, with a pH of about 7.3 to 7.8 and an organic matter content of about 1.0 percent) and water at a ratio of 100 kg of soil to 19 L of water. The prepared mud was dispensed in 250 mL aliquots into 480 mL non-perforated plastic pots with a surface area of 91.6 square centimeters leaving a headspace of 3 centimeters in each pot. […] Seedlings at the second or third leaf stage of growth were transplanted into 650 mL of mud contained in 960 mL non-perforated plastic pots with a surface area of 91.6 square centimeters 4 days prior to herbicide application. The paddy was created by filling the 3 centimeter headspace of the pots with water. When required to ensure good germination and healthy plants, a fungicide treatment and/or other chemical or physical treatment was applied. The plants were grown for 4-14 days in a greenhouse with an approximate 14 hour photoperiod which was maintained at about 29° C. during the day and 26° C. during the night. Nutrients were added as Osmocote (17:6:10, N:P:K+minor nutrients) at 2 g per pot. Water was added on a regular basis to maintain the paddy flood, and supplemental lighting was provided with overhead metal halide 1000-Watt lamps as necessary. The plants were employed for testing when they reached the second or third true leaf stage. A weighed amount, determined by the highest rate to be tested, of each test compound was placed in a 120 mL glass vial and was dissolved in 20 mL of acetone to obtain concentrated stock solutions. […] Application rates of ½×, ¼×, ⅛× and 1/16× of the high rate were obtained by injecting an appropriate amount of the stock solution into the aqueous layer of the paddy. Control plants were treated in the same manner with the solvent blank. The treated plants and control plants were placed in a greenhouse as described above and water was added as needed to maintain a paddy flood.

Scirpus juncoides = assay: Herbicidal activity in transplanted paddy rice; assay type: in vivo; settings: Schoenoplectiella juncoides, 504 h; paddy water application, 70 g ai/ha, after 3 weeks; read-out: % Control SCPJU
Experimental: as §4

Monochoria vaginalis = assay: Herbicidal activity in transplanted paddy rice; assay type: in vivo; settings: Pontederia vaginalis, 504 h; paddy water application, 70 g ai/ha, after 3 weeks; read-out: % Control MOOVA
Experimental: as §4

[8] = tested on: rice (Orysa sativa var. Japonica); assay: Herbicidal activity in transplanted paddy rice; assay type: in vivo; settings: Oryza sativa, 504 h; transplant rice (crop), paddy water application, 70 g ai/ha, after 3 weeks
Experimental: as §4

Cyperus difformis = assay: Herbicidal activity in transplanted paddy rice; assay type: in vivo; settings: Cyperus difformis, 504 h; paddy water application, 70 g ai/ha, after 3 weeks; read-out: % Control CYPDI
Experimental: as §4

Compound | pest or weed control at 140 g/ha [2] [%] | pest or weed control at 140 g/ha [3] [%] | pest or weed control at 140 g/ha [4] [%] | pest or weed control at 140 g/ha [5] [%] | pest or weed control at 140 g/ha [6] [%] | pest or weed control at 140 g/ha [7] [%] | melting point [°C] | pest or weed control at 70 g/ha (barley (Hordeum vulare)) [%] | plant injury at 70 g/ha [1] [%] | pest or weed control at 70 g/ha (Lamium purpureum) [%] | pest or weed control at 70 g/ha (Veronica persica) [%] | pest or weed control at 70 g/ha (Papaver rhoeas) [%] | pest or weed control at 70 g/ha (Galium aparine) [%] | other results
COC(=O)c1nc(-c2ccc(Cl)c(OC)c2F)c(F)c(N)c1Cl [Compound 14, 4-Amino-3-chloro-5-fluoro-6-(4-chloro-2-fluoro-3-methoxyphenyl)pyridine-2-carboxylic acid methyl ester] | 100 | 100 | 100 | 100 | 100 | 100 | 172 to 173 | – | – | – | – | – | – | pest or weed control at 35 g/ha (barley (Hordeum vulare); 35 g ai/ha): 0%; plant injury at 35 g/ha ([1]; 35 g ai/ha): 0%; pest or weed control at 35 g/ha (Lamium purpureum; 35 g ai/ha): 95%; pest or weed control at 35 g/ha (Veronica persica; 35 g ai/ha): 65%; pest or weed control at 35 g/ha (Papaver rhoeas; 35 g ai/ha): 95%; pest or weed control at 35 g/ha (Galium aparine; 35 g ai/ha): 90%
COC(=O)c1nc(-c2ccc(Cl)c(N(C)C)c2F)cc(N)c1Cl [Compound 16, 4-Amino-3-chloro-6-(4-chloro-3-dimethylamino-2-fluorophenyl)pyridine-2-carboxylic acid, methyl ester] | 90 | 100 | 100 | 100 | 100 | 100 | 104 to 106 | – | – | – | – | – | – | pest or weed control at 17.5 g/ha (barley (Hordeum vulare); 17.5 g ai/ha): 10%; plant injury at 17.5 g/ha ([1]; 17.5 g ai/ha): 10%; pest or weed control at 17.5 g/ha (Lamium purpureum; 17.5 g ai/ha): 100%; pest or weed control at 17.5 g/ha (Veronica persica; 17.5 g ai/ha): 95%; pest or weed control at 17.5 g/ha (Papaver rhoeas; 17.5 g ai/ha): 95%; pest or weed control at 17.5 g/ha (Galium aparine; 17.5 g ai/ha): 95%
COC(=O)c1nc(-c2cc(N(C)C)c(Cl)cc2F)cc(N)c1Cl [Compound 26, 4-amino-3-chloro-6-(4-chloro-5-dimethylamino-2-fluorophenyl)pyridine-2-carboxylic acid methyl ester] | 10 | 90 | 10 | 100 | 100 | 100 | 113 to 115 | 10 | 0 | 95 | 40 | 95 | 80 | –
COC(=O)c1nc(-c2c(F)cc(Cl)c(N(C)C)c2F)cc(N)c1Cl [Compound 50, 4-Amino-3-chloro-6-[4-chloro-3-(dimethylamino)-2,6-difluorophenyl]pyridine-2-carboxylic acid, methyl ester] | 100 | 100 | 100 | 100 | 100 | 100 | – | 0 | 0 | 100 | 60 | 95 | 95 | –
CCCCOC(=O)c1nc(-c2c(F)cc(Cl)c(OC)c2F)cc(N)c1Cl [Compound 88, 4-Amino-3-chloro-6-(4-chloro-2,6-difluoro-3-methoxyphenyl)pyridine-2-carboxylic acid, butyl ester] | – | – | – | – | – | – | – | – | – | – | – | – | – | pest or weed control at 70 g/ha (Echinochloa crus-galli): 100%; pest or weed control at 70 g/ha (Scirpus juncoides): 100%; pest or weed control at 70 g/ha (Monochoria vaginalis): 100%; pest or weed control at 70 g/ha [8]: 10%; pest or weed control at 70 g/ha (Cyperus difformis): 100%
COc1cc(-c2cc(N)c(Cl)c(C(=O)O)n2)c(F)cc1Cl [Compound 101, 4-Amino-3-chloro-6-(4-chloro-2-fluoro-5-methoxyphenyl)pyridine-2-carboxylic acid] | 100 | 100 | 100 | 100 | 100 | 100 | – | 5 | 10 | 99 | 60 | 100 | 60 | –
